Biological target: T1, Recombinant Human ENPP-2/Autotaxin (Homo sapiens, UniProt Q13822)
T1 construct: purchased R&D systems 5255-EN
Test: LysoPLD activity measurement (autotaxin enzyme inhibition, choline release, TOOS reagent)
Assay type: biochemical
Conditions: LysoPLD inhibitory activity; substrate 14:0 LysoPC; absorbance at 555 nm
Outline: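 Autotaxin lysoPLD activity was read as choline released from 14:0 LysoPC, detected by TOOS reagent absorbance. Compound was preincubated 30 min, then substrate diluted to 300 μM was added and the reaction ran 90 minutes at 37° C. Controls contained 1% DMSO.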

Work on `O=C(O)c1cccc(Cn2c(=O)n(-c3ccc(N4CCN(C(=O)C5CC5)CC4)cc3)c3cc(Cl)ccc32)c1` [Example 95, 3-((5-chloro-3-(4-(4-(cyclopropanecarbonyl)piperazin-1-yl)phenyl)-2-oxo-2,3-dihydro-1H-benzo[d]imidazol-1-yl)methyl)benzoic acid] yielded an IC50 of 0.01 to 0.1 µM.

Compound `CC(C)OC(=O)N1CCN(c2ccc(-n3c(=O)n(Cc4cccc(C(=O)O)c4)c4ccc(Cl)cc43)cc2)CC1` [Example 96, 3-((5-chloro-3-(4-(4-(isopropoxycarbonyl)piperazin-1-yl)phenyl)-2-oxo-2,3-dihydro-1H-benzo[d]imidazol-1-yl)methyl)benzoic acid] has an IC50 of 0.01 to 0.1 µM.

Compound `CN1CCN(c2ccc(-n3c(=O)n(Cc4cccc(C(=O)O)c4)c4ccc(Cl)cc43)cc2)CC1` [Example 97, 3-((5-chloro-3-(4-(4-methylpiperazin-1-yl)phenyl)-2-oxo-2,3-dihydro-1H-benzo[d]imidazol-1-yl)methyl)benzoic acid] has an IC50 of 0.1 to 1 µM.

`O=C(O)c1cccc(C2(n3c(=O)n(-c4ccc(C5CCCCC5)cc4)c4cc(Cl)ccc43)CC2)c1` [Example 98, 3-(1-(5-chloro-3-(4-cyclohexylphenyl)-2-oxo-2,3-dihydro-1H-benzo[d]imidazol-1-yl)cyclopropyl)benzoic acid] was tested, and the IC50 was 0.1 to 1 µM.

`O=C(O)c1cccc(C2(n3c(=O)n(-c4ccc(C5CCOCC5)cc4)c4cc(Cl)ccc43)CC2)c1` [Example 99, 3-(1-(5-chloro-2-oxo-3-(4-(tetrahydro-2H-pyran-4-yl)phenyl)-2,3-dihydro-1H-benzo[d]imidazol-1-yl)cyclopropyl)benzoic acid] was tested, and the IC50 was under 0.01 µM.

`O=C(O)c1cccc(Cn2c(=O)n(-c3ccc(C4CCN(C(=O)C5CC5)CC4)cc3)c3cc(Cl)ccc32)c1` [Example 100, 3-((5-chloro-3-(4-(1-(cyclopropanecarbonyl)piperidin-4-yl)phenyl)-2-oxo-2,3-dihydro-1H-benzo[d]imidazol-1-yl)methyl)benzoic acid] was tested, and the IC50 was 0.01 to 0.1 µM.

Work on `O=C(O)c1cccc(Cn2c(=O)n(-c3ccc(C4CCN(C(=O)C5CCC5)CC4)cc3)c3cc(Cl)ccc32)c1` [Example 101, 3-((5-chloro-3-(4-(1-(cyclobutanecarbonyl)piperidin-4-yl)phenyl)-2-oxo-2,3-dihydro-1H-benzo[d]imidazol-1-yl)methyl)benzoic acid] yielded an IC50 of 0.1 to 1 µM.

For `CCC(=O)N1CCC(c2ccc(-n3c(=O)n(Cc4cccc(C(=O)O)c4)c4ccc(Cl)cc43)cc2)CC1` [Example 102, 3-((5-chloro-2-oxo-3-(4-(1-propionylpiperidin-4-yl)phenyl)-2,3-dihydro-1H-benzo[d]imidazol-1-yl)methyl)benzoic acid], the IC50 was 0.01 to 0.1 µM.

Work on `O=C(O)c1cccc(Cn2c(=O)n(-c3ccc(C4CCOCC4)cc3)c3cc(Cl)ccc32)c1` [Example 103, 3-((5-chloro-2-oxo-3-(4-(tetrahydro-2H-pyran-4-yl)phenyl)-2,3-dihydro-1H-benzo[d]imidazol-1-yl)methyl)benzoic acid] yielded an IC50 of 0.01 to 0.1 µM.

`O=C(O)c1cccc(Cn2c(=O)n(-c3ccc(C4=CCOCC4)cc3)c3cc(Cl)ccc32)c1` [Example 104, 3-((5-chloro-3-(4-(3,6-dihydro-2H-pyran-4-yl)phenyl)-2-oxo-2,3-dihydro-1H-benzo[d]imidazol-1-yl)methyl)benzoic acid] gave an IC50 of 0.01 to 0.1 µM.

In the case of `O=C(O)c1cccc(Cn2c(=O)n(-c3ccc(N4CCC(F)(F)C4)cc3)c3c(F)c(Cl)ccc32)c1` [Example 105, 3-((5-chloro-3-(4-(3,3-difluoropyrrolidin-1-yl)phenyl)-4-fluoro-2-oxo-2,3-dihydro-1H-benzo[d]imidazol-1-yl)methyl)benzoic acid], the IC50 is reported as 0.1 to 1 µM.

In the case of `O=C(O)c1cccc(C2(n3c(=O)n(-c4ccc(C5CCOCC5)cc4)c4cc(Cl)ccc43)CC2)c1F` [Example 106, 3-(1-(5-chloro-2-oxo-3-(4-(tetrahydro-2H-pyran-4-yl)phenyl)-2,3-dihydro-1H-benzo[d]imidazol-1-yl)cyclopropyl)-2-fluorobenzoic acid], the IC50 is reported as under 0.01 µM.
